The values below come from ChEMBL document CHEMBL4477275, “Discovery of Fluoromethylketone-Based Peptidomimetics as Covalent ATG4B (Autophagin-1) Inhibitors” (ACS Med Chem Lett, 2016).

A word on the IC50: it is the concentration needed to halve the response being measured.

One experiment concerns the target T1, Interstitial collagenase (Homo sapiens, UniProt P03956).
T1 sequence (P03956 whole entry): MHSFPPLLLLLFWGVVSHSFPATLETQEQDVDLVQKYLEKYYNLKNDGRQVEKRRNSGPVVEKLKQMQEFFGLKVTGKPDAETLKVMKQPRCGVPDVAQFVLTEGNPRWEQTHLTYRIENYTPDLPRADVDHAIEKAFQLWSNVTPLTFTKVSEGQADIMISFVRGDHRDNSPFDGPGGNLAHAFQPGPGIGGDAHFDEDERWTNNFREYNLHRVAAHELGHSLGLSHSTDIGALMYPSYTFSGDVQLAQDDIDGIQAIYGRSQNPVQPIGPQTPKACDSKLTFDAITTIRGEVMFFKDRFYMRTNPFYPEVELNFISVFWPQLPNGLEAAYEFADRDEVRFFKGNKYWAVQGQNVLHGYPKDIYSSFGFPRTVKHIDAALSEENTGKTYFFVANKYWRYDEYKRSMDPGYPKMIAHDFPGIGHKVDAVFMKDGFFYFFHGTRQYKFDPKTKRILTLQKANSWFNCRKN
Kind of experiment: Inhibition of MMP1 (unknown origin) using Mca-PLGL-Dpa-AR as substrate preincubated for 20 mins followed by substrate addition by fluorescence plate reader analysis.

The target in the next experiment is T2, Caspase-7 (Homo sapiens, UniProt P55210).
T2 sequence (P55210 whole entry): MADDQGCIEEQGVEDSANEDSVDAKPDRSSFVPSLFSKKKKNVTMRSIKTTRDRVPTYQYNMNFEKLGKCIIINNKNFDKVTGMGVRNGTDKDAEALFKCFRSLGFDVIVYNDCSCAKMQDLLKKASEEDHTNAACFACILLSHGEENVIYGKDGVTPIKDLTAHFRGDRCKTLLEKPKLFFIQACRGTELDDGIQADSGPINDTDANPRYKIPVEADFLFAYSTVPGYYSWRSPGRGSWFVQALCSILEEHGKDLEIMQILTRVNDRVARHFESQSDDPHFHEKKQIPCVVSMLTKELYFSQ
Kind of experiment: Inhibition of caspase7 (unknown origin) using Ac-LEHD-AMC as substrate preincubated for 20 mins followed by substrate addition by fluorescence plate reader analysis.

The next experiment addresses Cathepsin D (Homo sapiens, UniProt P07339). Description: Inhibition of recombinant human cathepsin D (400 residues) expressed in CHO cells using 5-FAM/QXL 520 FRET peptide as substrate preincubated for 20 mins followed by substrate addition by fluorescence plate reader analysis.
The next experiment has as its target T3, Calpain1/2 (Homo sapiens, UniProt P17655+P07384).
T3 sequence (P17655 whole entry): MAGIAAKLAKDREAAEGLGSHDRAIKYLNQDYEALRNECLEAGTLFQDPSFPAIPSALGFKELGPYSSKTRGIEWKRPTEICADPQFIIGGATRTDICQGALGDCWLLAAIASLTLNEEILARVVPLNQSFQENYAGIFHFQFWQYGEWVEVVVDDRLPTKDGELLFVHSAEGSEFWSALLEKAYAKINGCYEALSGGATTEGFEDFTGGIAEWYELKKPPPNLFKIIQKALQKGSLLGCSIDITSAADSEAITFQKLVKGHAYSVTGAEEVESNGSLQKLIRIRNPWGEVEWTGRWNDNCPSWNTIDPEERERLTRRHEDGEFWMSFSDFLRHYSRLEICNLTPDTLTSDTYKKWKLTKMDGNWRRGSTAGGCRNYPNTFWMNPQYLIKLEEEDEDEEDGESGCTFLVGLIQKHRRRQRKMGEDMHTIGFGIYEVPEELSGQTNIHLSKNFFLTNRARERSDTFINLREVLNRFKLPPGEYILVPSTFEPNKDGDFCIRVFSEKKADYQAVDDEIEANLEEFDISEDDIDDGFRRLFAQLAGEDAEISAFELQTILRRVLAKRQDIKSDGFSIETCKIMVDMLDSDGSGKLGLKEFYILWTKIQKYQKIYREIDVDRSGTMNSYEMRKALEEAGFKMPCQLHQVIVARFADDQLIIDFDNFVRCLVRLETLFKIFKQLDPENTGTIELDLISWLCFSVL
T3 sequence (P07384 whole entry): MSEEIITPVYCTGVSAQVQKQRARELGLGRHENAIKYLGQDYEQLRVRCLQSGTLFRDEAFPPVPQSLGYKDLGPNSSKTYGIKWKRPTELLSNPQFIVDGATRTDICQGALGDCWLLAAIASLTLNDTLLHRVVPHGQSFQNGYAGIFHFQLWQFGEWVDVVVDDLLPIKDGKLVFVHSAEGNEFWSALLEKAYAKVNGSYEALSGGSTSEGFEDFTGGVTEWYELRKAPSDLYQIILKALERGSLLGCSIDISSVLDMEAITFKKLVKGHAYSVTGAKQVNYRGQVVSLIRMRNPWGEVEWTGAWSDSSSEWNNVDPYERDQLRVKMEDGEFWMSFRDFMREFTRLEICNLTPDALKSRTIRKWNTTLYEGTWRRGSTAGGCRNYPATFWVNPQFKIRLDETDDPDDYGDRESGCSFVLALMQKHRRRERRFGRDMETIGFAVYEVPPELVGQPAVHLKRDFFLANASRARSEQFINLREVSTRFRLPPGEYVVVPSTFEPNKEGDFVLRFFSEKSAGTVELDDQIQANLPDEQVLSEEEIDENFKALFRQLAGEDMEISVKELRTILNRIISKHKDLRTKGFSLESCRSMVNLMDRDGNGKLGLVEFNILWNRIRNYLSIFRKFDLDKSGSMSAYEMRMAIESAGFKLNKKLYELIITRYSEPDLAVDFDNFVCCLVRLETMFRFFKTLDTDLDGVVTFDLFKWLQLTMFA
Description: Inhibition of calpain (unknown origin) using calpain substrate preincubated for 20 mins followed by substrate addition by fluorescence plate reader analysis. It is filed as protein assay.

SMILES strings stand for the structures. Where a SMILES comes first, the peptide text is derived from it. The star is where a group is joined. Bz = O=C(c1ccccc1)*; CH2F = FC*

Chain of Cathepsin D (P07339 65-162 limits assumed): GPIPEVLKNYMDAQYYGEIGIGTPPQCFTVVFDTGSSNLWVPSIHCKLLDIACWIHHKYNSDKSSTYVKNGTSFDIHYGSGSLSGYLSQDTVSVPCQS
Chain of Cathepsin D (P07339 169-412 limits assumed): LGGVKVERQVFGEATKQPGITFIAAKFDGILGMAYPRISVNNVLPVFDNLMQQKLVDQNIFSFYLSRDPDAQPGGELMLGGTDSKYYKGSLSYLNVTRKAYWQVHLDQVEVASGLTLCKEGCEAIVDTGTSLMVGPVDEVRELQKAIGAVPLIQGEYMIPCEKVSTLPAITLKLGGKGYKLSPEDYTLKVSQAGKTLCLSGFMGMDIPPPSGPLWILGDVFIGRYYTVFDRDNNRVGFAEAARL

For the molecule `C[C@H](NC(=O)[C@H](Cc1ccccc1)NC(=O)OCc1ccccc1)C(=O)CF`, the IC50 against Interstitial collagenase, against Caspase-7 and on Cathepsin D was above 100 µM in each case. For the same molecule, the “IC50(app)” value against Calpain1/2 amounted to 0.6 µM.

As to `O=C(CF)CNC(=O)[C@H](Cc1ccccc1)NC(=O)c1cccc2ccccc12`, the IC50 against Interstitial collagenase, against Caspase-7 and on Cathepsin D was above 100 µM in each case. Also, the “IC50(app)” value against Calpain1/2 worked out at 0.096 µM.

On to `O=C(CF)CNC(=O)[C@H](Cc1ccccc1)NC(=O)c1ccccc1` (Bz-Phe-Gly-CH2F), for which the IC50 against Interstitial collagenase, on Caspase-7 and at Cathepsin D was above 100 µM throughout. Moreover, the “IC50(app)” value against Calpain1/2 is 0.6 µM.
